In brackets after ≈: the same amount, converted by molar mass. Activity calls are given as the source filed them. The rule behind the calls is not given here.
Experiments:
Aspergillus clavatus [1] = experiment: Antimicrobial activity against Aspergillus clavatus MTCC 1323 assessed as diameter of growth inhibition zone after 48 hr; assay type: functional
Escherichia coli [2] = experiment: Antimicrobial activity against Escherichia coli MTCC 739 assessed as growth inhibition at 100 ug/ml after 24 hr by agar streak dilution method; assay type: functional, organism-based
Candida albicans [3] = experiment: Antimicrobial activity against Candida albicans MTCC 183 assessed as growth inhibition after 48 hr by agar streak dilution method; assay type: functional; details: MTCC 183, 48 h
Pseudomonas aeruginosa [4] = experiment: Antimicrobial activity against Pseudomonas aeruginosa MTCC 741 assessed as growth inhibition at 100 ug/ml after 24 hr by agar streak dilution method; assay type: functional, organism-based
Bacillus cereus [5] = experiment: Antimicrobial activity against Bacillus cereus MTCC 430 assessed as diameter of growth inhibition zone after 24 hr; assay type: functional
Shigella flexneri [6] = experiment: Antimicrobial activity against Shigella flexneri MTCC1457 assessed as growth inhibition at 100 ug/ml after 24 hr by agar streak dilution method; assay type: functional, organism-based
Klebsiella pneumoniae [7] = experiment: Antimicrobial activity against Klebsiella pneumoniae MTCC 109 assessed as growth inhibition after 24 hr by agar streak dilution method; assay type: functional; details: MTCC 109, 24 h
Aspergillus fumigatus [8] = experiment: Antimicrobial activity against Aspergillus fumigatus MTCC 343 assessed as diameter of growth inhibition zone after 48 hr; assay type: functional
Aspergillus niger [9] = experiment: Antimicrobial activity against Aspergillus niger MTCC 282 assessed as diameter of growth inhibition zone after 48 hr; assay type: functional
Aspergillus fumigatus [10] = experiment: Antimicrobial activity against Aspergillus fumigatus MTCC 343 assessed as growth inhibition after 48 hr by agar streak dilution method; assay type: functional; details: MTCC 343, 48 h
Proteus vulgaris [11] = experiment: Antimicrobial activity against Proteus vulgaris MTCC 1771 assessed as growth inhibition at 100 ug/ml after 24 hr by agar streak dilution method; assay type: functional, organism-based
Aspergillus niger [12] = experiment: Antimicrobial activity against Aspergillus niger MTCC 282 assessed as growth inhibition after 48 hr by agar streak dilution method; assay type: functional; details: MTCC 282, 48 h
Candida albicans [13] = experiment: Antimicrobial activity against Candida albicans MTCC 183 assessed as diameter of growth inhibition zone after 48 hr; assay type: functional
Staphylococcus aureus [14] = experiment: Antimicrobial activity against Staphylococcus aureus MTCC 96 assessed as growth inhibition at 100 ug/ml after 24 hr by agar streak dilution method; assay type: functional, organism-based
Aspergillus clavatus [15] = experiment: Antimicrobial activity against Aspergillus clavatus MTCC 1323 assessed as growth inhibition after 48 hr by agar streak dilution method; assay type: functional; details: MTCC 1323, 48 h
[16] = tested on: Mycobacterium tuberculosis; experiment: Antituberculosis activity against Mycobacterium tuberculosis H37Rv assessed as growth inhibition after 12 to 28 days by L-J MIC method; assay type: functional; details: for MIC: Mycobacterium tuberculosis, H37Rv
Salmonella typhi [17] = experiment: Antimicrobial activity against Salmonella enterica subsp. enterica serovar Typhi MTCC 733 assessed as growth inhibition after 24 hr by agar streak dilution method; assay type: functional; details: MTCC 733, 24 h
Klebsiella pneumoniae [18] = experiment: Antimicrobial activity against Klebsiella pneumoniae MTCC 109 assessed as diameter of growth inhibition zone after 24 hr; assay type: functional
Salmonella typhi [19] = experiment: Antimicrobial activity against Salmonella enterica subsp. enterica serovar Typhi MTCC 733 assessed as diameter of growth inhibition zone after 24 hr; assay type: functional
Bacillus cereus [20] = experiment: Antimicrobial activity against Bacillus cereus MTCC 430 assessed as growth inhibition after 24 hr by agar streak dilution method; assay type: functional; details: MTCC 430, 24 h
Proteus vulgaris [21] = experiment: Antimicrobial activity against Proteus vulgaris MTCC 1771 assessed as diameter of growth inhibition zone after 24 hr; assay type: functional
Proteus vulgaris [22] = experiment: Antimicrobial activity against Proteus vulgaris MTCC 1771 assessed as growth inhibition after 24 hr by agar streak dilution method; assay type: functional; details: MTCC 1771, 24 h
Shigella flexneri [23] = experiment: Antimicrobial activity against Shigella flexneri MTCC1457 assessed as diameter of growth inhibition zone after 24 hr; assay type: functional
Escherichia coli [24] = experiment: Antimicrobial activity against Escherichia coli MTCC 739 assessed as growth inhibition after 24 hr by agar streak dilution method; assay type: functional; details: MTCC 739, 24 h
Shigella flexneri [25] = experiment: Antimicrobial activity against Shigella flexneri MTCC1457 assessed as growth inhibition after 24 hr by agar streak dilution method; assay type: functional; details: MTCC1457, 24 h
Pseudomonas aeruginosa [26] = experiment: Antimicrobial activity against Pseudomonas aeruginosa MTCC 741 assessed as diameter of growth inhibition zone after 24 hr; assay type: functional
Staphylococcus aureus [27] = experiment: Antimicrobial activity against Staphylococcus aureus MTCC 96 assessed as growth inhibition after 24 hr by agar streak dilution method; assay type: functional; details: MTCC 96, 24 h
Staphylococcus aureus [28] = experiment: Antimicrobial activity against Staphylococcus aureus MTCC 96 assessed as diameter of growth inhibition zone after 24 hr; assay type: functional
Escherichia coli [29] = experiment: Antimicrobial activity against Escherichia coli MTCC 739 assessed as diameter of growth inhibition zone after 24 hr; assay type: functional
Pseudomonas aeruginosa [30] = experiment: Antimicrobial activity against Pseudomonas aeruginosa MTCC 741 assessed as growth inhibition after 24 hr by agar streak dilution method; assay type: functional; details: MTCC 741, 24 h

SMILES | diameter of the inhibition zone (DIZ) (Aspergillus clavatus [1]) [mm] | MIC (Candida albicans [3]) [µg/mL] | diameter of the inhibition zone (DIZ) (Bacillus cereus [5]) [mm] | MIC (Klebsiella pneumoniae [7]) [µg/mL] | diameter of the inhibition zone (DIZ) (Aspergillus fumigatus [8]) [mm] | diameter of the inhibition zone (DIZ) (Aspergillus niger [9]) [mm] | MIC (Aspergillus fumigatus [10]) [µg/mL] | MIC (Aspergillus niger [12]) [µg/mL] | diameter of the inhibition zone (DIZ) (Candida albicans [13]) [mm] | MIC (Aspergillus clavatus [15]) [µg/mL] | growth inhibition (GI) [16] [%] | MIC [16] [µg/mL] | MIC (Salmonella typhi [17]) [µg/mL] | diameter of the inhibition zone (DIZ) (Klebsiella pneumoniae [18]) [mm] | diameter of the inhibition zone (DIZ) (Salmonella typhi [19]) [mm] | MIC (Bacillus cereus [20]) [µg/mL] | diameter of the inhibition zone (DIZ) (Proteus vulgaris [21]) [mm] | MIC (Proteus vulgaris [22]) [µg/mL] | diameter of the inhibition zone (DIZ) (Shigella flexneri [23]) [mm] | MIC (Escherichia coli [24]) [µg/mL] | also measured
O=C(/C=C/c1ccccc1)c1ccc(Nc2cc(=O)oc3ccccc23)cc1 | 15 | 100 (≈ 272 µM) | <10 | 100 (≈ 272 µM) | 12 | <10 | 100 (≈ 272 µM) | 100 (≈ 272 µM) | <10 | 100 (≈ 272 µM) | 95 | 1000 (≈ 2720 µM) | 100 (≈ 272 µM) | <10 | 11 | 100 (≈ 272 µM) | – | – | – | – | growth inhibition (GI) (Escherichia coli [2]): inactive; growth inhibition (GI) (Pseudomonas aeruginosa [4]): inactive; growth inhibition (GI) (Shigella flexneri [6]): inactive; growth inhibition (GI) (Proteus vulgaris [11]): inactive; growth inhibition (GI) (Staphylococcus aureus [14]): inactive
CC(=O)N1N=C(c2ccc(Nc3cc(=O)oc4ccccc34)cc2)CC1c1ccc(C)cc1 (stereo unspecified) | 11 | 100 (≈ 229 µM) | 16 | 100 (≈ 229 µM) | 15 | 19 | 100 (≈ 229 µM) | 50 (≈ 114 µM) | 14 | 100 (≈ 229 µM) | 98 | 200 (≈ 457 µM) | 100 (≈ 229 µM) | 13 | 14 | 100 (≈ 229 µM) | 20 | 50 (≈ 114 µM) | 20 | 100 (≈ 229 µM) | MIC (Shigella flexneri [25]): 50 µg/mL (≈ 114 µM); diameter of the inhibition zone (DIZ) (Pseudomonas aeruginosa [26]): 16 mm; MIC (Staphylococcus aureus [27]): 100 µg/mL (≈ 229 µM); diameter of the inhibition zone (DIZ) (Staphylococcus aureus [28]): 16 mm; diameter of the inhibition zone (DIZ) (Escherichia coli [29]): 12 mm; MIC (Pseudomonas aeruginosa [30]): 100 µg/mL (≈ 229 µM)
N#Cc1c(-c2ccccc2O)cc(-c2ccc(Nc3cc(=O)oc4ccccc34)cc2)nc1N | 27 | 25 (≈ 56 µM) | 22 | 3.12 (≈ 6.99 µM) | 25 | 25 | 6.25 (≈ 14 µM) | 12.5 (≈ 28 µM) | 24 | 6.25 (≈ 14 µM) | 97 | 25 (≈ 56 µM) | 6.25 (≈ 14 µM) | 28 | 25 | 12.5 (≈ 28 µM) | 22 | 12.5 (≈ 28 µM) | 21 | 12.5 (≈ 28 µM) | MIC (Shigella flexneri [25]): 12.5 µg/mL (≈ 28 µM); diameter of the inhibition zone (DIZ) (Pseudomonas aeruginosa [26]): 24 mm; MIC (Staphylococcus aureus [27]): 12.5 µg/mL (≈ 28 µM); diameter of the inhibition zone (DIZ) (Staphylococcus aureus [28]): 21 mm; diameter of the inhibition zone (DIZ) (Escherichia coli [29]): 24 mm; MIC (Pseudomonas aeruginosa [30]): 12.5 µg/mL (≈ 28 µM)
COc1ccc(C2CC(c3ccc(Nc4cc(=O)oc5ccccc45)cc3)=NN2C(C)=O)cc1OC (stereo unspecified) | 20 | 25 (≈ 51.7 µM) | 18 | 25 (≈ 51.7 µM) | 19 | 23 | 50 (≈ 103 µM) | 25 (≈ 51.7 µM) | 22 | 50 (≈ 103 µM) | 98 | 100 (≈ 207 µM) | 25 (≈ 51.7 µM) | 22 | 21 | 50 (≈ 103 µM) | 20 | 50 (≈ 103 µM) | 23 | 25 (≈ 51.7 µM) | MIC (Shigella flexneri [25]): 12.5 µg/mL (≈ 25.9 µM); diameter of the inhibition zone (DIZ) (Pseudomonas aeruginosa [26]): 20 mm; MIC (Staphylococcus aureus [27]): 25 µg/mL (≈ 51.7 µM); diameter of the inhibition zone (DIZ) (Staphylococcus aureus [28]): 20 mm; diameter of the inhibition zone (DIZ) (Escherichia coli [29]): 21 mm; MIC (Pseudomonas aeruginosa [30]): 50 µg/mL (≈ 103 µM)
Nc1nc(-c2ccc(Cl)cc2)cc(-c2ccc(Nc3cc(=O)oc4ccccc34)cc2)n1 | 17 | 12.5 (≈ 28.4 µM) | 19 | 12.5 (≈ 28.4 µM) | 19 | 17 | 25 (≈ 56.7 µM) | 50 (≈ 113 µM) | 21 | 50 (≈ 113 µM) | 97 | 200 (≈ 454 µM) | 25 (≈ 56.7 µM) | 22 | 20 | 50 (≈ 113 µM) | 23 | 12.5 (≈ 28.4 µM) | 21 | 50 (≈ 113 µM) | MIC (Shigella flexneri [25]): 25 µg/mL (≈ 56.7 µM); diameter of the inhibition zone (DIZ) (Pseudomonas aeruginosa [26]): 16 mm; MIC (Staphylococcus aureus [27]): 50 µg/mL (≈ 113 µM); diameter of the inhibition zone (DIZ) (Staphylococcus aureus [28]): 20 mm; diameter of the inhibition zone (DIZ) (Escherichia coli [29]): 18 mm; MIC (Pseudomonas aeruginosa [30]): 100 µg/mL (≈ 227 µM)
N#Cc1c(-c2ccc(Cl)cc2Cl)cc(-c2ccc(Nc3cc(=O)oc4ccccc34)cc2)nc1N | 22 | 12.5 (≈ 25 µM) | 26 | 12.5 (≈ 25 µM) | 23 | 22 | 12.5 (≈ 25 µM) | 12.5 (≈ 25 µM) | 23 | 25 (≈ 50.1 µM) | 99 | 25 (≈ 50.1 µM) | 12.5 (≈ 25 µM) | 23 | 24 | 6.25 (≈ 12.5 µM) | 28 | 3.12 (≈ 6.25 µM) | 23 | 12.5 (≈ 25 µM) | MIC (Shigella flexneri [25]): 12.5 µg/mL (≈ 25 µM); diameter of the inhibition zone (DIZ) (Pseudomonas aeruginosa [26]): 25 mm; MIC (Staphylococcus aureus [27]): 3.12 µg/mL (≈ 6.25 µM); diameter of the inhibition zone (DIZ) (Staphylococcus aureus [28]): 28 mm; diameter of the inhibition zone (DIZ) (Escherichia coli [29]): 20 mm; MIC (Pseudomonas aeruginosa [30]): 6.25 µg/mL (≈ 12.5 µM)
